Measurements from patent US6987100B2, “Pharmaceutical compositions for treating bone lesions in multiple myeloma” (Astellas Pharm Inc., priority 1998, dated 2006).
Where two headings read alike, the source gives them in different places.

What was measured:
[1] = system: mice transplanted with myeloma cells ARH-77; assay: Lumbar bone mineral density decrease test in multiple myeloma model animals; type: in vivo
Experimental: Similar to Example 1, mice suffering from paralysis in hind limbs were selected 3 weeks after the transplantation of myeloma cells. Then an aqueous solution of the compound A monohydrate (3 mg/kg) (compound A group) and the solvent alone (solvent group) were orally administered once a day for 6 days repeatedly. On the next day of the completion of the administration, a 10% formalin solution was refluxed from the left cardiac ventricle under anesthesia with pentobarbital and the lumber vertebrae was taken out. The bone mineral density in the bone tissue was measured by the DXA method. As Example 1, the normal mice (sham-operated group) were also subjected to the measurement of the bone mineral density.
Two weeks after the transplantation of the myeloma cells, the compound A was orally administered for 14 days in doses of 0.03, 0.3 and 3 mg/kg. Then the bone mineral density was measured as in the above (1) but selecting animals suffering from paralysis in hind limbs during the administration period.

[2] = system: human myeloma cells ARH-77; assay: Myeloma cell proliferation inhibitory test; type: cell-based
Experimental: A 5×10^4 cells/ml cell dilution of human myeloma cells […], which had been incubated in a culture flask, was prepared by using an RPMI1640 medium (containing 10% of EBS), pipetted in 1 ml portions into a 24-well plate and then incubated in a CO2 incubator at 37° C. After 6 hours, 100 μl portions of the aqueous solution of the compound A were added to give final concentrations of 0.3 to 1000 μM (three-fold serial, duplicate samples). After incubating in the CO2 incubator at 37° C. for 4 days, the viable cells were counted with the use of a Cell Counting Kit (Dojin Kagaku). By referring the value of the control prepared by adding PBS as to the cell proliferation inhibitory ratio of […], the inhibitory ratios were calculated.

[3] = system: patient with multiple myeloma; assay: Clinical test 1 (multiple myeloma and bone lesions, one patient); type: in vivo, human; conditions: for M protein (IgD): blood
[4] = system: mice transplanted with myeloma cells ARH-77; assay: Bone resorption inhibition test in multiple myeloma model animals (urinary deoxypyridinoline); type: in vivo, C.B-17/lcr-scid Jcl mice; conditions: 0.1 mg/kg intravenous once; urine on day 4 after administration; mice with paralysis in hind limbs; vs solvent group
Experimental: On the next day, 10^6 cells/mouse of myeloma cells ARH-77 were transplanted into the left cardiac ventricle of each animal under anesthesia with pentobarbital. […] On the day 4 after the administration, a physiological saline load (30 ml/kg po) was burdened to these mice and the urine was collected after 6 hours. Since the mice suffering from paralysis in hind limbs could hardly urinate, such an animal was subjected to abdominal section and the urine was directly collected from the bladder. Normal animals (sham-operated group), into the left cardiac ventricle of which PBS (0.1 ml/animal) was injected as a substitute for the myeloma cells, were treated in the same manner. The urinary deoxypyridinoline (Dpyr) level was measured by using a [sequence]-D kit (Amersham) and corrected with the urinary creatinine level.

[5] = system: patients with multiple myeloma; conditions: for systemic bone salt mass, change ratio to the data before the administration: 5 patients
patients = conditions: intravenous 90 mg/4 weeks, cited from earlier work
murine model of myeloma = conditions: cited from earlier work
[6] = system: patients with multiple myeloma; conditions: 30 mg/day oral; cited from earlier work
[7] = 3 mg oral once a day, after 8 weeks
[8] = 6 mg oral once a day, after 24 weeks

O=P(O)(O)C(O)(Cc1cnc2ccccn12)P(=O)(O)O [compound A, 1-hydroxy-2-(imidazo[1,2-a]pyridin-3-yl)ethane-1,1-bisphosphonic acid]
bone mineral density of lumbar vertebrae ([1]; 3 mg/kg oral once a day for 6 days, DXA method, mice with paralysis in hind limbs): 24.7 ± 0.9 mg/cm^2. | lumbar bone mineral density compared with solvent group ([1]; oral administration (6 days 3 mg/kg; 14 days 0.03, 0.3, 3 mg/kg)): higher bone mineral density than the solvent group | cell proliferation inhibitory ratio ([2]; 100 μM, 4 days incubation, ARH-77): 84.2% | inhibition of ARH-77 cell proliferation ([2]; 0.3 to 1000 μM, 4 days): dose-dependent manner | Dpyr level relative to level before the administration [3, 7]: about 60% | M protein (IgD) ([3]; 3 mg oral once a day, after 2 weeks): 11.6 mg/dL | M protein (IgD) ([3]; 3 mg oral once a day, after 4 weeks): 9.8 mg/dL | M protein (IgD) [3, 7]: 7.7 mg/dL | M protein (IgD) ([3]; 3 mg oral once a day, after 20 weeks): 5.9 mg/dL | M protein (IgD) ([3]; before administration): 25.8 mg/dL | inhibition of the increase in urinary Dpyr level (bone resorption marker) [4]: significantly inhibited | side effects related to the compound ([5]; 6 mg oral once a day for 24 weeks, 6 patients): No side effect | systemic bone salt mass, change ratio to the data before the administration ([5]; 6 mg oral once a day, after 12 weeks): 0.61% | narcotic score (analgesic type × administration frequency) [5, 8]: 0.60±1.342 | systemic bone salt mass, change ratio to the data before the administration [5, 8]: 1.18% | EORTC questionnaire on QOL ([5]; 6 mg oral once a day, before vs after 24 weeks): improvement was observed in pain, fatigue, shortness of breath, inappetence, constipation, economic conditions | bone lesions in bone radiographs ([5]; 6 mg oral once a day, one of the patients): obvious amelioration in bone lesions | narcotic score (analgesic type × administration frequency) ([5]; before the administration): 1.67±3.615

NCCC(O)(P(=O)(O)O)P(=O)(O)O [pamidronate]
inhibition of the increase in urinary Dpyr level (bone resorption marker) [4]: no significant inhibition | Dpyr level relative to level before the administration (patients; after 4 weeks): exceeded 80% | Dpyr level relative to level before the administration (patients; week 2): about 60% | cytotoxic effect within the bone marrow (murine model of myeloma): evidence of a cytotoxic effect within the bone marrow | effect on tumor growth / tumor burden (murine model of myeloma): no effect on tumor growth was demonstrated

O=P(O)(O)C(O)(Cc1cccnc1)P(=O)(O)O [risedronate]
inhibition of the increase in urinary Dpyr level (bone resorption marker) [4]: no significant inhibition | bone mineral density [6]: elevated bone mineral density | bone resorption [6]: suppressed bone resorption | bone destruction (murine model of myeloma): clear reduction in bone destruction | effect on tumor growth / tumor burden (murine model of myeloma): no effect on tumor burden
